{"source": "patent US20050244971A1", "about": "“Transgenic plants with enhanced stress tolerance” (KOREA KUMHO PETROCHEMICAL CO., LTD., priority 2002, published 2005)", "key": {"wild type plants (Ler) [1]": {"system": "wild type plants (Ler)", "assay": "ABA dose-response of root growth", "format": "in vivo, Arabidopsis thaliana", "method": "(§1) FIG. 2. ABA Sensitivity of 35S-ABF3 and 35S-ABF4 Plants. (A) Growth of transgenic plants on medium containing 0.5 μM ABA. Seeds were germinated and grown for 12 days. (B) Growth of transgenic plants on medium containing 0.25 μM ABA. Seeds were germinated on the medium for 3 days and representative plants are shown. (C) ABA dose-response of germination. Seeds, 6 months old after harvest and pre-chilled at 4° C. for 4 days, were germinated on media containing various concentrations of ABA, and seedlings with fully emerged radicles were counted after 3 days. Experiments were done in triplicates (n=50 each), and the bars show standard errors. (D) ABA dose-response of root growth. Seeds were germinated for 4 days on ABA-free medium and the seedlings (n=6) were transferred to media containing various concentrations of ABA. Root elongation was measured 5 days after the transfer. The experiments were performed more than four times, sometimes using different transgenic lines, and the results were consistent. The small bars represent standard errors. Transgenic lines A319 (ABF3) and A405 (ABF4) were used.\n(§2) To see the stage-specificity of ABA response, ABA dose-response was examined during and after germination. […] Likewise, root growth of the 35S-ABF transgenic lines was hypersensitive to ABA (FIG. 2D). At 0.5 μM ABA, wild type root growth was 84% of its control rate, whereas those of 35S-ABF4 and 35S-ABF3 plants were 35% and 51% of their control rates, respectively. At 1 μM ABA, root growth of the 35S-ABF4 plants reduced to 6% and the 35S-ABF3 plants to 37%. […] Wild type plants grew at 62% of the control rate at the same ABA concentration."}, "[2]": {"system": "35S-ABF transgenic plants", "assay": "ABA dose-response of root growth", "format": "in vivo, Arabidopsis thaliana", "conditions": "ABA concentration above 5 μM", "method": "as §1, §2"}, "[3]": {"system": "35S-ABF3 transgenic plants (line A319)", "assay": "ABA dose-response of root growth", "format": "in vivo", "conditions": "Arabidopsis thaliana, 120 h, root elongation 5 days after transfer, read-out: root growth, % of control rate", "method": "as §1, §2"}, "[4]": {"system": "35S-ABF4 transgenic plants (line A405)", "assay": "ABA dose-response of root growth", "format": "in vivo", "conditions": "Arabidopsis thaliana, 120 h, root elongation 5 days after transfer, read-out: root growth, % of control rate", "method": "as §1, §2"}, "wild type plants [5]": {"system": "wild type plants", "assay": "Germination and growth on ABA-containing medium", "format": "in vivo, Arabidopsis thaliana", "conditions": "ABA 0.5 μM or above", "method": "as §1\n(§3) To test whether ABF3 or ABF4 overexpression affected ABA sensitivity, 35S-ABF3 and 35S-ABF4 transgenic plants were germinated and grown on media containing various concentrations of ABA. […]"}, "35S-ABF plants [6]": {"system": "35S-ABF plants", "assay": "Germination and growth on ABA-containing medium", "format": "in vivo, Arabidopsis thaliana", "conditions": "ABA 0.5 μM or above", "method": "as §1, §3"}, "wild type plants (Ler) [7]": {"system": "wild type plants (Ler)", "assay": "ABA dose-response of germination", "format": "in vivo, Arabidopsis thaliana", "conditions": "0.5 μM ABA, fully emerged radicles counted after 3 days", "method": "as §1, §2"}, "[8]": {"system": "35S-ABF3 transgenic plants (line A319)", "assay": "ABA dose-response of germination", "format": "in vivo, Arabidopsis thaliana", "conditions": "0.5 μM ABA, fully emerged radicles counted after 3 days", "method": "as §1, §2"}, "[9]": {"system": "35S-ABF4 transgenic plants (line A405)", "assay": "ABA dose-response of germination", "format": "in vivo, Arabidopsis thaliana", "conditions": "0.5 μM ABA, fully emerged radicles counted after 3 days", "method": "as §1, §2"}, "[10]": {"system": "35S-ABF and wild type plants", "assay": "Effect of ACC and IAA on growth of 35S-ABF versus wild type plants", "parameters": "species or system Arabidopsis thaliana", "conditions": "in vivo", "description": "According to the studies, ABA-mediated inhibition of germination is negatively regulated by ethylene, whereas ethylene signaling components are required for the ABA inhibition of root growth (Beaudoin et al., 2000; Ghassemian et al., 2000). […] When exposed to progressive drought, new lateral roots take a short and tuberized form. The process, known as ‘drought rhizogenesis’, is impaired not only in the ABA deficient aba-1 and ABA-insensitive abi1-1 mutants but also in the auxin resistant axr1-3 mutant. To test whether the overexpression of ABF3 or ABF4 affected ethylene or auxin sensitivity, we compared the effects of the ethylene precursor 1-aminocyclopropane-1-carboxylic acid (ACC) and indole-3-acetic acid (IAA) on the growth of 35S-ABF and wild type plants. […] However, leaves of 35S-ABF4 plants have a tendency to have epinastic curvature when grown on plates (FIG. 4A), which is generally attributed to ethylene action under stress conditions (Jackson, 1997). […] Thus, the result implies that auxin signaling pathway(s) might have been perturbed in 35S-ABF4 plants."}, "35S-ABF plants [11]": {"system": "35S-ABF plants", "assay": "Salt effect on germination and newly germinated seedling growth", "format": "in vivo, Arabidopsis thaliana", "method": "(§4) FIG. 3. […] (A) Salt effect on germination. Seeds of Ler, aba1-1, abi1-1, abi2-1, 35S-ABF3 (line A319) and 35S-ABF4 (line A405) were plated after 4 days of cold treatment on media containing 50, 100, or 150 mM NaCl, and germination (fully open cotyledons) was scored after 4 days. Experiments were done in triplicates (n=50 each), and standard errors are smaller than the symbols. (B) Salt effect on newly germinated seedling growth. Seeds of the same transgenic lines were germinated for 4 days on media containing 100 mM of NaCl, KCl or mannitol, and representative seedlings are shown. (C) Glucose response of 35S-ABF transgenic plants. Seeds were germinated and grown for 14 days on the regular growth medium or the same medium supplemented with 3% glucose or mannitol at vertical position. A319, A333, A405, and A406 indicate transgenic lines.\n(§5) High concentrations of salts inhibit the germination of Arabidopsis (Werner and Finkelstein, 1995; Leon-Kloosterziel et al., 1996; Quesada et al., 2000; Zhu, 2000). […] To test this, 35S-ABF transgenic plants were germinated on media containing various concentrations of NaCl.\n(§6) Plants were grown at 22° C. under long day condition (16 hr light/8 hr dark cycle) aseptically or on soil. […]"}, "wild type plants [12]": {"system": "wild type plants", "conditions": "NaCl below 100 mM; wild type (also aba1, abi1, abi2 mutants)", "method": "as §4, §5, §6"}, "35S-ABF transgenic lines": {"system": "35S-ABF transgenic lines", "assay": "Glucose response of seedlings", "format": "in vivo, Arabidopsis thaliana", "conditions": "3% mannitol; both wild type and 35S-ABF transgenic plants", "method": "as §4\nPlants were grown at 22° C. under long day condition (16 hr light/8 hr dark cycle) aseptically or on soil. For soil growth, seeds were sown on 1:1:1 mixture of vermiculite, perlite and peat moss irrigated with 0.1% Hyponex, placed at 4° C. for 4 days in the dark to break residual dormancy, and transferred to normal growth conditions. Unless otherwise stated, the plants were watered once a week. […]"}}}
{"smiles": "CC1=CC(=O)CC(C)(C)[C@@]1(O)/C=C/C(C)=C\\C(=O)O", "note": "[ABA, abscisic acid]", "values": [{"measurement": "root growth", "setting": "wild type plants (Ler) [1]; ABA concentration above 5 μM", "value": "still continued to grow"}, {"measurement": "activity at 0.5 µM", "setting": "wild type plants (Ler) [1]; Arabidopsis thaliana, 120 h, 0.5 μM ABA, root elongation 5 days after transfer, read-out: root growth, % of control rate", "value": 84, "unit": "%"}, {"measurement": "activity at 1 µM", "setting": "wild type plants (Ler) [1]; Arabidopsis thaliana, 120 h, 1 μM ABA, root elongation 5 days after transfer, read-out: root growth, % of control rate", "value": 62, "unit": "%"}, {"measurement": "root growth", "setting": "[2]", "value": "almost completely arrested"}, {"measurement": "activity at 0.5 µM", "setting": "[3]; 0.5 μM ABA", "value": 51, "unit": "%"}, {"measurement": "activity at 1 µM", "setting": "[3]; 1 μM ABA", "value": 37, "unit": "%"}, {"measurement": "activity at 0.5 µM", "setting": "[4]; 0.5 μM ABA", "value": 35, "unit": "%"}, {"measurement": "activity at 1 µM", "setting": "[4]; 1 μM ABA", "value": 6, "unit": "%"}, {"measurement": "growth after radicle emergence", "setting": "wild type plants [5]", "value": "continued to grow and develop"}, {"measurement": "growth after radicle emergence", "setting": "35S-ABF plants [6]", "value": "completely arrested"}, {"measurement": "germination", "setting": "wild type plants (Ler) [7]", "value": 80, "unit": "%"}, {"measurement": "germination efficiency", "setting": "[8]", "value": 8, "unit": "%"}, {"measurement": "germination efficiency", "setting": "[9]", "value": 28, "unit": "%"}]}
{"smiles": "NC1(C(=O)O)CC1", "note": "[ACC, 1-aminocyclopropane-1-carboxylic acid]", "values": [{"measurement": "difference in growth response between 35S-ABF and wild type plants", "setting": "[10]", "value": "did not see any differences"}]}
{"smiles": "O=C(O)Cc1c[nH]c2ccccc12", "note": "[IAA, indole-3-acetic acid]", "values": [{"measurement": "difference in growth response between 35S-ABF and wild type plants", "setting": "[10]", "value": "did not see any differences"}]}
{"smiles": "[Cl-].[Na+]", "note": "[NaCl]", "values": [{"measurement": "germination and growth", "setting": "35S-ABF plants [11]; 100 mM NaCl", "value": "significantly affected"}, {"measurement": "germination", "setting": "wild type plants [12]", "value": "not affected"}]}
{"smiles": "OC[C@@H](O)[C@@H](O)[C@H](O)[C@H](O)CO", "note": "[mannitol]", "values": [{"measurement": "response of germination/seedling growth", "setting": "35S-ABF plants [11]; mannitol, same or twice the concentration (100 mM)", "value": "normal"}, {"measurement": "growth inhibition", "setting": "35S-ABF transgenic lines", "value": "significantly but similarly"}]}
